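48-hour exposure; five concentrations; linearly interpolated endpoints. At the GI50, growth is halved. Definition used: TGI = concentration required for complete inhibition of growth.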
Legend:
Experiment in all cases: NCI-60 cell line screen, 48 h
SR leukemia = test system: SR leukemia
HCC-2998 colon = test system: HCC-2998 colon
LOX IMVI melanoma = test system: LOX IMVI melanoma
RPMI-8226 leukemia = test system: RPMI-8226 leukemia
HOP-62 NSCLC = test system: HOP-62 NSCLC
MALME-3M melanoma = test system: MALME-3M melanoma
IGROV1 ovarian = test system: IGROV1 ovarian
SF-268 CNS = test system: SF-268 CNS
SK-MEL-5 melanoma = test system: SK-MEL-5 melanoma
ACHN renal = test system: ACHN renal
MCF7 breast = test system: MCF7 breast
UO-31 renal = test system: UO-31 renal
KM12 colon = test system: KM12 colon
CAKI-1 renal = test system: CAKI-1 renal
SNB-19 CNS = test system: SNB-19 CNS
HL-60(TB) leukemia = test system: HL-60(TB) leukemia
BT-549 breast = test system: BT-549 breast
OVCAR-8 ovarian = test system: OVCAR-8 ovarian
K-562 leukemia = test system: K-562 leukemia
M14 melanoma = test system: M14 melanoma
U251 CNS = test system: U251 CNS
A549 NSCLC = test system: A549 NSCLC
OVCAR-3 ovarian = test system: OVCAR-3 ovarian
SK-MEL-2 melanoma = test system: SK-MEL-2 melanoma
HCT-15 colon = test system: HCT-15 colon
COLO 205 colon = test system: COLO 205 colon
A498 renal = test system: A498 renal
EKVX NSCLC = test system: EKVX NSCLC
CCRF-CEM leukemia = test system: CCRF-CEM leukemia
UACC-257 melanoma = test system: UACC-257 melanoma
OVCAR-4 ovarian = test system: OVCAR-4 ovarian
TK-10 renal = test system: TK-10 renal
NCI-H460 lung = test system: NCI-H460 lung
MOLT-4 leukemia = test system: MOLT-4 leukemia
NCI-H522 lung = test system: NCI-H522 lung
786-0 renal = test system: 786-0 renal
DU-145 prostate = test system: DU-145 prostate
SN12C renal = test system: SN12C renal
T-47D breast = test system: T-47D breast
HOP-92 NSCLC = test system: HOP-92 NSCLC
SF-295 CNS = test system: SF-295 CNS
RXF 393 renal = test system: RXF 393 renal
HCT-116 colon = test system: HCT-116 colon
SK-MEL-28 melanoma = test system: SK-MEL-28 melanoma
OVCAR-5 ovarian = test system: OVCAR-5 ovarian
SW-620 colon = test system: SW-620 colon
HS 578T breast = test system: HS 578T breast
MDA-MB-435 = test system: MDA-MB-435
PC-3 prostate = test system: PC-3 prostate
NCI-H23 lung = test system: NCI-H23 lung
SF-539 CNS = test system: SF-539 CNS
HT29 colon = test system: HT29 colon
UACC-62 melanoma = test system: UACC-62 melanoma
MDA-MB-231 breast = test system: MDA-MB-231 breast
NCI/ADR-RES ovarian = test system: NCI/ADR-RES ovarian
NCI-H226 lung = test system: NCI-H226 lung
SK-OV-3 ovarian = test system: SK-OV-3 ovarian
SNB-75 CNS = test system: SNB-75 CNS

Compound `COc1cc(C2C3=C(COC3=O)Oc3cc4c(cc32)OCO4)cc(OC)c1OC(C)=O` (centres undefined) has a TGI (SR leukemia) greater than 100 µM, a TGI (HCC-2998 colon) greater than 100 µM and a TGI (LOX IMVI melanoma) greater than 24.1 µM. For the same compound, the TGI (RPMI-8226 leukemia) was greater than 100 µM, the TGI (HOP-62 NSCLC) was greater than 100 µM and the TGI (MALME-3M melanoma) was greater than 100 µM. For the same compound, the TGI (IGROV1 ovarian) was 10.9 µM, the TGI (SF-268 CNS) was greater than 100 µM and the TGI (SK-MEL-5 melanoma) was 0.0785 µM. It also gave a TGI (ACHN renal) greater than 57.2 µM, a TGI (MCF7 breast) greater than 51.6 µM and a TGI (UO-31 renal) greater than 39.4 µM. The TGI (KM12 colon) was greater than 100 µM, the TGI (CAKI-1 renal) was greater than 100 µM and the TGI (SNB-19 CNS) was greater than 100 µM. It also gave a TGI (HL-60(TB) leukemia) of 0.615 µM, a TGI (BT-549 breast) of 5.74 µM and a TGI (OVCAR-8 ovarian) greater than 100 µM. For the same compound, the TGI (K-562 leukemia) was greater than 100 µM, the TGI (M14 melanoma) was greater than 100 µM and the TGI (U251 CNS) was greater than 100 µM. For the same compound, the TGI (A549 NSCLC) was greater than 100 µM, the TGI (OVCAR-3 ovarian) was greater than 100 µM and the TGI (SK-MEL-2 melanoma) was greater than 100 µM. The TGI (HCT-15 colon) was greater than 100 µM, the TGI (COLO 205 colon) was 0.336 µM and the TGI (A498 renal) was 0.618 µM. The TGI (EKVX NSCLC) was greater than 100 µM, the TGI (CCRF-CEM leukemia) was greater than 100 µM and the TGI (UACC-257 melanoma) was greater than 100 µM. For the same compound, the TGI (OVCAR-4 ovarian) was greater than 100 µM, the TGI (TK-10 renal) was greater than 100 µM and the TGI (NCI-H460 lung) was greater than 100 µM. The TGI (MOLT-4 leukemia) was greater than 100 µM, the TGI (NCI-H522 lung) was greater than 100 µM and the TGI (786-0 renal) was greater than 100 µM. The TGI (DU-145 prostate) was greater than 100 µM and the TGI (SN12C renal) was greater than 100 µM.

Work on `CC1(C)N=C(N)N=C(N)N1c1ccc(CCCCc2ccc(S(=O)(=O)F)cc2)c(Cl)c1` yielded a GI50 (SR leukemia) of 0.051 µM, a TGI (SR leukemia) of 23.2 µM and a GI50 (HCC-2998 colon) of 0.884 µM. It also gave a TGI (HCC-2998 colon) of 20.9 µM, a GI50 (T-47D breast) of 2.05 µM and a TGI (T-47D breast) of 15.2 µM. It also gave a GI50 (LOX IMVI melanoma) of 0.0723 µM, a TGI (LOX IMVI melanoma) of 15.3 µM and a GI50 (RPMI-8226 leukemia) of 0.283 µM. It also gave a TGI (RPMI-8226 leukemia) of 13 µM, a GI50 (HOP-92 NSCLC) of 5.56 µM and a TGI (HOP-92 NSCLC) of 26.1 µM. For the same compound, the GI50 (SF-295 CNS) was 0.636 µM, the TGI (SF-295 CNS) was 18.2 µM and the GI50 (HOP-62 NSCLC) was 1.45 µM. It also gave a TGI (HOP-62 NSCLC) of 23.7 µM, a GI50 (RXF 393 renal) of 0.0862 µM and a TGI (RXF 393 renal) greater than 61.2 µM. For the same compound, the GI50 (MALME-3M melanoma) was 12 µM, the TGI (MALME-3M melanoma) was 35.9 µM and the GI50 (IGROV1 ovarian) was 0.0592 µM. For the same compound, the TGI (IGROV1 ovarian) was 21.5 µM, the GI50 (SF-268 CNS) was 0.225 µM and the TGI (SF-268 CNS) was 19.5 µM. For the same compound, the GI50 (SK-MEL-5 melanoma) was 0.345 µM, the TGI (SK-MEL-5 melanoma) was 12.5 µM and the GI50 (HCT-116 colon) was 0.0483 µM. For the same compound, the TGI (HCT-116 colon) was 18.9 µM, the GI50 (SK-MEL-28 melanoma) was 0.85 µM and the TGI (SK-MEL-28 melanoma) was 20.8 µM. For the same compound, the GI50 (ACHN renal) was 0.789 µM, the TGI (ACHN renal) was greater than 100 µM and the GI50 (MCF7 breast) was 0.198 µM. It also gave a TGI (MCF7 breast) of 14.2 µM, a GI50 (UO-31 renal) of 9.59 µM and a TGI (UO-31 renal) greater than 100 µM. It also gave a GI50 (OVCAR-5 ovarian) of 0.124 µM, a TGI (OVCAR-5 ovarian) of 83.8 µM and a GI50 (KM12 colon) of 0.454 µM. The TGI (KM12 colon) was 15.2 µM, the GI50 (SW-620 colon) was 0.0527 µM and the TGI (SW-620 colon) was 14.7 µM. It also gave a GI50 (HS 578T breast) of 9.27 µM, a TGI (HS 578T breast) of 32.1 µM and a GI50 (CAKI-1 renal) of 0.79 µM. It also gave a TGI (CAKI-1 renal) greater than 100 µM, a GI50 (SNB-19 CNS) of 0.773 µM and a TGI (SNB-19 CNS) of 19.1 µM. The GI50 (HL-60(TB) leukemia) was 0.181 µM, the TGI (HL-60(TB) leukemia) was 23.6 µM and the GI50 (MDA-MB-435) was 0.0666 µM. For the same compound, the TGI (MDA-MB-435) was 16.6 µM, the GI50 (PC-3 prostate) was 0.0493 µM and the TGI (PC-3 prostate) was 15.9 µM. For the same compound, the GI50 (BT-549 breast) was 9.61 µM, the TGI (BT-549 breast) was 22.5 µM and the GI50 (NCI-H23 lung) was 0.363 µM. The TGI (NCI-H23 lung) was 19.5 µM, the GI50 (OVCAR-8 ovarian) was 0.452 µM and the TGI (OVCAR-8 ovarian) was 18.4 µM. The GI50 (K-562 leukemia) was 0.0628 µM, the TGI (K-562 leukemia) was 17.9 µM and the GI50 (SF-539 CNS) was 0.391 µM. It also gave a TGI (SF-539 CNS) of 13.9 µM, a GI50 (HT29 colon) of 0.0566 µM and a TGI (HT29 colon) of 15.3 µM. The GI50 (M14 melanoma) was 0.334 µM, the TGI (M14 melanoma) was 17.9 µM and the GI50 (U251 CNS) was 0.0936 µM. For the same compound, the TGI (U251 CNS) was 16.4 µM, the GI50 (A549 NSCLC) was 0.334 µM and the TGI (A549 NSCLC) was greater than 44.8 µM. For the same compound, the GI50 (UACC-62 melanoma) was 0.0559 µM, the TGI (UACC-62 melanoma) was 19.6 µM and the GI50 (MDA-MB-231 breast) was 1.76 µM. For the same compound, the TGI (MDA-MB-231 breast) was 21.2 µM, the GI50 (OVCAR-3 ovarian) was 0.851 µM and the TGI (OVCAR-3 ovarian) was 17.4 µM. The GI50 (SK-MEL-2 melanoma) was 2.48 µM, the TGI (SK-MEL-2 melanoma) was 20.7 µM and the GI50 (HCT-15 colon) was 0.593 µM. The TGI (HCT-15 colon) was greater than 100 µM, the GI50 (COLO 205 colon) was 0.34 µM and the TGI (COLO 205 colon) was 18.7 µM. It also gave a GI50 (A498 renal) of 0.981 µM, a TGI (A498 renal) of 18 µM and a GI50 (NCI/ADR-RES ovarian) of 45 µM. The TGI (NCI/ADR-RES ovarian) was greater than 100 µM, the GI50 (CCRF-CEM leukemia) was 0.107 µM and the TGI (CCRF-CEM leukemia) was 17.4 µM. The GI50 (UACC-257 melanoma) was 0.929 µM, the TGI (UACC-257 melanoma) was 19.1 µM and the GI50 (NCI-H226 lung) was 0.626 µM. For the same compound, the TGI (NCI-H226 lung) was 25.9 µM, the GI50 (OVCAR-4 ovarian) was 5.18 µM and the TGI (OVCAR-4 ovarian) was 22 µM. It also gave a GI50 (SK-OV-3 ovarian) of 7.97 µM, a TGI (SK-OV-3 ovarian) of 25.5 µM and a GI50 (TK-10 renal) of 0.848 µM. For the same compound, the TGI (TK-10 renal) was 20.3 µM, the GI50 (NCI-H460 lung) was 0.0399 µM and the TGI (NCI-H460 lung) was 12.6 µM. It also gave a GI50 (MOLT-4 leukemia) of 0.518 µM, a TGI (MOLT-4 leukemia) of 21.4 µM and a GI50 (NCI-H522 lung) of 0.419 µM. The TGI (NCI-H522 lung) was 16.7 µM, the GI50 (SNB-75 CNS) was 0.514 µM and the TGI (SNB-75 CNS) was 18.9 µM. The GI50 (786-0 renal) was 0.224 µM, the TGI (786-0 renal) was 19.3 µM and the GI50 (DU-145 prostate) was 0.484 µM. It also gave a TGI (DU-145 prostate) of 17.5 µM, a GI50 (SN12C renal) of 0.189 µM and a TGI (SN12C renal) of 16.2 µM.

`OC(c1cc2cc(Cl)c(Cl)cc2c2cc(C(F)(F)F)ccc12)C1CCCCN1` (centres undefined) gave a GI50 (UO-31 renal) of 1.52 µM, a TGI (UO-31 renal) of 3.16 µM and a GI50 (OVCAR-5 ovarian) of 1.61 µM. The TGI (OVCAR-5 ovarian) was 3.1 µM, the GI50 (HS 578T breast) was 1.54 µM and the TGI (HS 578T breast) was 3.27 µM. It also gave a GI50 (CAKI-1 renal) of 2 µM, a TGI (CAKI-1 renal) of 4.32 µM and a GI50 (HL-60(TB) leukemia) of 2.28 µM. It also gave a TGI (HL-60(TB) leukemia) of 4.07 µM, a GI50 (OVCAR-8 ovarian) of 1.67 µM and a TGI (OVCAR-8 ovarian) of 3.21 µM. The GI50 (U251 CNS) was 1.72 µM, the TGI (U251 CNS) was 3.21 µM and the GI50 (A549 NSCLC) was 1.68 µM. The TGI (A549 NSCLC) was 3.18 µM, the GI50 (A498 renal) was 1.36 µM and the TGI (A498 renal) was 2.69 µM. The GI50 (MOLT-4 leukemia) was 1.59 µM, the TGI (MOLT-4 leukemia) was 3.32 µM and the GI50 (DU-145 prostate) was 1.94 µM. The TGI (DU-145 prostate) was 3.36 µM.

Reference: PubChem BioAssay (NCI)
